Like-named read-outs stand apart in the source and are kept apart here.
Columns and labels:
[1] = target: T1, Progestogen receptor of rabbit uterus (Oryctolagus cuniculus, UniProt P06186); assay: Progestogen receptor of rabbit uterus: relative liaison affinity (RLA), displacement of tritiated Product R; format: binding; settings: for relative liaison affinity (RLA), Progestogen receptor: vs tritiated Product R; for activity for the progestogen receptor (in words): conclusion
T1 construct: Their uterus were removed, weighed and homogenized at 0° C; from tissue; host or cells: 105,000 g supernatant (cytosol) of uterus from estradiol-treated impuberal rabbits
T1 sequence (P06186 1-930): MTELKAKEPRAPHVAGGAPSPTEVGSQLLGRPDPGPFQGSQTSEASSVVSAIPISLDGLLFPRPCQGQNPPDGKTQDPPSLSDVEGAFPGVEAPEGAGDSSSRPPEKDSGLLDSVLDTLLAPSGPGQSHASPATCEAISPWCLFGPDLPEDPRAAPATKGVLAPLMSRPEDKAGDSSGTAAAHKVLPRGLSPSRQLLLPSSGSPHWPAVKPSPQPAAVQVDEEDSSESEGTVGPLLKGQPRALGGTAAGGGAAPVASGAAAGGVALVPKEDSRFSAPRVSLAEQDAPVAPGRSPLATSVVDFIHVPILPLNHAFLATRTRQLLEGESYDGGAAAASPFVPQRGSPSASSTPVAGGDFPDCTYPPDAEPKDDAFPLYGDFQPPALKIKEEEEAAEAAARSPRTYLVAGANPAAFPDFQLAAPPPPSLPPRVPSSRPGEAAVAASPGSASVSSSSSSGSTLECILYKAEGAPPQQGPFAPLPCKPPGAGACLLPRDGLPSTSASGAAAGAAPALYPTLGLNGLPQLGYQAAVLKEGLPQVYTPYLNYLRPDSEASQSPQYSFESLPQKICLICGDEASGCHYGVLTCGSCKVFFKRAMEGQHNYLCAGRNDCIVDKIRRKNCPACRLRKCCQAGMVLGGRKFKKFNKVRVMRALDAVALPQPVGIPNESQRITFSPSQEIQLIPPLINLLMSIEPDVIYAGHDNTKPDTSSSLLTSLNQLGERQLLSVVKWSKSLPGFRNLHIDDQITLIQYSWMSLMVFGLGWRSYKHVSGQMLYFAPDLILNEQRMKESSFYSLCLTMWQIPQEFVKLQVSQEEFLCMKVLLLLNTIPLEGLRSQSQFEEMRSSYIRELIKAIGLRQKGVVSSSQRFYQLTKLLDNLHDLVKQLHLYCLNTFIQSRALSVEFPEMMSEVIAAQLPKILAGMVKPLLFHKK
Procedure: (1) Study of the activity on the hormone receptors
Progestogen receptor of rabbit uterus
Impuberal rabbits of about 1 kg received a cutaneous application of […] of estradiol and 5 days after this treatment, the animals were killed. Their uterus were removed, weighed and homogenized at 0° C. using a Potter teflon-glass in a TS buffered solution (Tris 10 mM, saccharose 0.25M, HCl pH 7.4) (1 g of tissue for 50 ml of TS). The homogenate was then ultracentrifuged at 105,000 g for 90 minutes at 0° C. Aliquots of the supernatant so obtained were incubated at 0° C. for a time t, with a constant concentration (T) of Product R tritiated (17,21-dimethyl-19-nor-Δ^4,9 -pregnadiene-3,20-dione) in the presence of increasing concentrations (0-2,500 10^-9 M) either of R cold, or of cold progesterone, or of the cold product under test. The concentration of tritiated R bonded (B) was then measured in each incubate by the technique of adsorption to dextran-carbon.
(§1) Calculation of the relative liaison affinity
(§2) The calculation of the relative liaison affinity (RLA) was identical for all the receptors. The two following curves were traced: the percentage of tritiated hormone bonded B as a function of the logarithm of the concentration of the cold reference hormone, and B/T as a function of the logarithm of the concentration of the cold product under test. The straight line was determined of the equation [formula] (B/T) max=percentage of tritiated hormone bonded for an incubation of this tritiated hormone at the concentration (T).
(§3) (B/T) min.=percentage of tritiated hormone bonded for an incubation of the tritiated hormone at the concentration (T) in the presence of a great excess of cold hormone (2500.10^-9 M).
(§4) The intersections of the straight line I50 and of the curves enabled the concentrations of the cold reference hormone (CH) and the cold product under test (CX) to be evaluated which inhibit by 50% the bonding of the tritiated hormone on the receptor.
The relative liaison affinity (RLA) of the product under test was determined by the equation [formula] and the following results were obtained: […]

[2] = target: T2, Glucocorticoid receptor of rat thymus (Rattus norvegicus, UniProt P06536); assay: Glucocorticoid receptor of rat thymus: relative liaison affinity (RLA), displacement of tritiated dexamethasone; format: binding, Male Sprague-Dawley EOPS rats; settings: for relative liaison affinity (RLA), Glucocorticoid receptor: vs tritiated dexamethasone; for affinity for the glucocorticoid receptors (in words): conclusion
T2 construct: Their thymus was removed and homogenized at 0° C; from tissue; host or cells: 105,000 g supernatant (cytosol) of thymus from adrenalectomized male Sprague-Dawley rats
T2 sequence (P06536 1-795): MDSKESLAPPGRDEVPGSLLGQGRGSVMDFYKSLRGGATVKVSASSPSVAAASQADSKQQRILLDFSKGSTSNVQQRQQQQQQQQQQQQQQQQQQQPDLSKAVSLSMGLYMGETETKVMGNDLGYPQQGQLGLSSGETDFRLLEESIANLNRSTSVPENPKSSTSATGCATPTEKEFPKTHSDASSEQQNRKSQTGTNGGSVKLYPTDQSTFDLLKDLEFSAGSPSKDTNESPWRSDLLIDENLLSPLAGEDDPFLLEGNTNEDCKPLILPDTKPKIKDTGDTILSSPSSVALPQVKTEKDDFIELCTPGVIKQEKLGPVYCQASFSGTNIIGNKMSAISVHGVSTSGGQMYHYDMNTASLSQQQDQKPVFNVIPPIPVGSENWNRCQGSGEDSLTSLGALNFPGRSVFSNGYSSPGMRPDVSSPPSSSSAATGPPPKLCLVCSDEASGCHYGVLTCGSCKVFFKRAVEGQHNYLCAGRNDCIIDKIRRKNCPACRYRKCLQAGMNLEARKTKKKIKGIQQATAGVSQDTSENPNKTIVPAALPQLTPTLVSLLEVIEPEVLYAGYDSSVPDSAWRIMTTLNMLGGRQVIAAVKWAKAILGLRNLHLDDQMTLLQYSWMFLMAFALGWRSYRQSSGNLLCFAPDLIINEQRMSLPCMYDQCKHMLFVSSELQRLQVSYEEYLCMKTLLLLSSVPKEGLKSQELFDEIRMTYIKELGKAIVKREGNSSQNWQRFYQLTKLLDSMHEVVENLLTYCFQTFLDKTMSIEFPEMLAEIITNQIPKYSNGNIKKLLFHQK
Procedure: Glucocorticoid receptor of rat thymus:
Their thymus was removed and homogenized at 0° C. in a buffer Tris 10 mM saccharose 0.25M, dithiotreitol 2 mM, HCl pH 7.4, using a Potter polytetrafluoroethylene-glass (1 g of tissue for 10 ml of TS). The homogenate was then ultracentrifuged at 105,000 g for 90 minutes at 0° C. Aliquots of the supernatant so obtained were incubated at 0° C. for a time (t) with a constant concentration (T) of tritiated dexamethasone in the presence of increasing concentrations (0-2,500.10^-9 M) either of cold dexamethasone, or of the cold product under test. The concentration of tritiated dexamethasone bonded (B) was then measured in each incubate by the technique of adsorption to dextran-carbon.
as §1, §2, §3, §4

[3] = system: Thymocytes of suprarenalectomized rats; assay: Anti-glucocorticoid activity: inhibition of the effect of dexamethasone on incorporation of tritiated uridine in thymocytes; format: cell-based; settings: for inhibition at 0.01 µM / inhibition at 0.1 µM / inhibition at 1 µM: Thymocyte, read-out: % inhibition of the effect of Dexamethasone
Procedure: (II). Anti-glucocorticoid activity
The technique utilized envolved from the method described by Dausse et al in "Molecular Pharmacology", Vol. 13, p. 948-955 (1977) ("the relationship between glucocorticoid structure and effects upon Thymocytes") for the thymocytes of mice. Thymocytes of suprarenalectomized rats were incubated at 37° C. for 3 hours in a nutritive medium containing 5.10^-8 M of dexamethasone in the presence or not of a product under study at different concentrations. Tritiated uridine was added and the incubation was continued for one hour. The incubates were cooled, then treated with a 5% solution of trichloroacetic acid, filtered on Whatman paper GF/A, and washed three times with a 5% solutioh of trichloroacetic acid. The radio-activity retained by the filter was determined.

[4] = 5.10^-8 M dexamethasone, rat thymocytes
[5] = product at 10^-6 M, 5.10^-8 M dexamethasone, rat thymocytes, 37° C., 3 hours
[6] = product at 10^-7 M, 5.10^-8 M dexamethasone, rat thymocytes, 37° C., 3 hours
[7] = product at 10^-8 M, 5.10^-8 M dexamethasone, rat thymocytes, 37° C., 3 hours

CC#C[C@]1(O)CC[C@H]2[C@@H]3CCC4=CC(=O)CC[C@]4(Sc4ccc(OC)cc4)C3=CC[C@@]21C [Example 10, 10β-[(4-methoxyphenyl)-thio]-17α-(prop-1-ynyl)-Δ^4,9(11) -estradien-17β-ol-3-one]
relative liaison affinity (RLA), Progestogen receptor ([1]; Incubation time 2 H at 0° C.): 0.9 | relative liaison affinity (RLA), Progestogen receptor ([1]; Incubation time 24 H at 0° C.): 0.5 | activity for the progestogen receptor (in words) [1]: negligible activity | relative liaison affinity (RLA), Glucocorticoid receptor ([2]; Incubation time 4 H at 0° C.): 218 | relative liaison affinity (RLA), Glucocorticoid receptor ([2]; Incubation time 24 H at 0° C.): 152 | affinity for the glucocorticoid receptors (in words) [2]: very marked affinity | effect on dexamethasone-induced diminution in the incorporation of tritiated uridine (in words) [3, 4]: oppose this effect

C[C@@H]1C[C@H]2[C@@H]3CCC4=CC(=O)C=C[C@]4(C)[C@@]3(F)[C@@H](O)C[C@]2(C)[C@@]1(O)C(=O)CO [dexamethasone, reference compound]
incorporation of tritiated uridine (in words) ([3]; rat thymocytes, dexamethasone): diminution in the incorporation of tritiated uridine

CC#C[C@]1(O)CC[C@H]2[C@@H]3CCC4=CC(=O)CC[C@]4(Cc4ccc(C)cc4)C3=CC[C@@]21C [Example 4, 10β-[4-methyl-benzyl]-17α-(prop-1-ynyl)-Δ^4,9(11) -estradiene-17β-ol-3-one]
activity for the progestogen receptor (in words) [1]: negligible activity | effect on dexamethasone-induced diminution in the incorporation of tritiated uridine (in words) [3, 4]: oppose this effect | inhibition at 0.01 µM ([3]; Rattus norvegicus, 3 h): 10% | inhibition at 0.1 µM ([3]; Rattus norvegicus, 3 h): 30% | inhibition at 1 µM ([3]; Rattus norvegicus, 3 h): 83%

CC#C[C@]1(O)CC[C@H]2[C@@H]3CCC4=CC(=O)CC[C@]4(Cc4ccccc4)C3=CC[C@@]21C [Example 1, 10β-benzyl-17α-(prop-1-ynyl)-Δ^4,9(11) -estradien-17β-ol-3-one]
relative liaison affinity (RLA), Progestogen receptor ([1]; Incubation time 2 H at 0° C.): 0.1 | relative liaison affinity (RLA), Progestogen receptor ([1]; Incubation time 24 H at 0° C.): 0.1 | activity for the progestogen receptor (in words) [1]: negligible activity | relative liaison affinity (RLA), Glucocorticoid receptor ([2]; Incubation time 4 H at 0° C.): 160 | relative liaison affinity (RLA), Glucocorticoid receptor ([2]; Incubation time 24 H at 0° C.): 57 | affinity for the glucocorticoid receptors (in words) [2]: very marked affinity | effect on dexamethasone-induced diminution in the incorporation of tritiated uridine (in words) [3, 4]: oppose this effect | inhibition at 1 µM [3, 5]: 80% | inhibition at 0.1 µM [3, 6]: 55% | inhibition at 0.01 µM [3, 7]: 20%

CC#C[C@]1(O)CC[C@H]2[C@@H]3CCC4=CC(=O)CC[C@]4(Cc4ccccc4F)C3=CC[C@@]21C [Example 12, 10β-[2-fluorobenzyl]-17α-(prop-1-ynyl)-Δ^4,9(11) -estradien-17β-ol-3-one]
relative liaison affinity (RLA), Progestogen receptor ([1]; Incubation time 2 H at 0° C.): 0.1 | relative liaison affinity (RLA), Progestogen receptor ([1]; Incubation time 24 H at 0° C.): 0.1 | activity for the progestogen receptor (in words) [1]: negligible activity | relative liaison affinity (RLA), Glucocorticoid receptor ([2]; Incubation time 4 H at 0° C.): 136 | relative liaison affinity (RLA), Glucocorticoid receptor ([2]; Incubation time 24 H at 0° C.): 45 | affinity for the glucocorticoid receptors (in words) [2]: very marked affinity | effect on dexamethasone-induced diminution in the incorporation of tritiated uridine (in words) [3, 4]: oppose this effect | inhibition at 1 µM [3, 5]: 67% | inhibition at 0.1 µM [3, 6]: 12% | inhibition at 0.01 µM [3, 7]: 6%

C=C(C)C[C@]12CCC(=O)C=C1CC[C@@H]1C2=CC[C@@]2(C)[C@H]1CC[C@@]2(O)C#CC [Example 7, 10β-(2-methyl-prop-2-en-1-yl)-17α-(prop-1-ynyl)-Δ^4,9(11) -estradien 17β-ol-3-one]
relative liaison affinity (RLA), Progestogen receptor ([1]; Incubation time 2 H at 0° C.): 0.4 | relative liaison affinity (RLA), Progestogen receptor ([1]; Incubation time 24 H at 0° C.): 0.1 | activity for the progestogen receptor (in words) [1]: negligible activity | relative liaison affinity (RLA), Glucocorticoid receptor ([2]; Incubation time 4 H at 0° C.): 226 | relative liaison affinity (RLA), Glucocorticoid receptor ([2]; Incubation time 24 H at 0° C.): 112 | affinity for the glucocorticoid receptors (in words) [2]: very marked affinity | effect on dexamethasone-induced diminution in the incorporation of tritiated uridine (in words) [3, 4]: oppose this effect | inhibition at 1 µM [3, 5]: 65% | inhibition at 0.1 µM [3, 6]: 16% | inhibition at 0.01 µM [3, 7]: 10%

— patent publication US4753932A, “Novel 10-substituted steroids” (Roussel Uclaf, priority 1985, dated 1988)
